In patent US8097616B2, “Process for preparation of high-purity meloxicam and meloxicam potassium salt” (Egis Gyogyszergyar Nyilvanosan Mukodo Reszvenytarsasag, priority 2004, dated 2012):

Experiment: solubility in water at the acidification pH
Assay type: physicochemical
Conditions: acidified until pH 6

Cc1cnc(NC(=O)C2=C(O)c3ccccc3S(=O)(=O)N2C)s1 [meloxicam, 4-hydroxy-2-methyl-N-(5-methyl-2-thiazolyl)-2H-1,2-benzothiazine-3-carboxamide-1,1-dioxide]
solubility in water: almost insoluble
